IC50 data for four compounds are collected here from US9034921B2, “Diphenylmethane derivatives as SGLT2 inhibitors” (GREEN CROSS CORPORATION, priority 2011, dated 2015).

Chain of human SGLT2 (P31639 whole entry): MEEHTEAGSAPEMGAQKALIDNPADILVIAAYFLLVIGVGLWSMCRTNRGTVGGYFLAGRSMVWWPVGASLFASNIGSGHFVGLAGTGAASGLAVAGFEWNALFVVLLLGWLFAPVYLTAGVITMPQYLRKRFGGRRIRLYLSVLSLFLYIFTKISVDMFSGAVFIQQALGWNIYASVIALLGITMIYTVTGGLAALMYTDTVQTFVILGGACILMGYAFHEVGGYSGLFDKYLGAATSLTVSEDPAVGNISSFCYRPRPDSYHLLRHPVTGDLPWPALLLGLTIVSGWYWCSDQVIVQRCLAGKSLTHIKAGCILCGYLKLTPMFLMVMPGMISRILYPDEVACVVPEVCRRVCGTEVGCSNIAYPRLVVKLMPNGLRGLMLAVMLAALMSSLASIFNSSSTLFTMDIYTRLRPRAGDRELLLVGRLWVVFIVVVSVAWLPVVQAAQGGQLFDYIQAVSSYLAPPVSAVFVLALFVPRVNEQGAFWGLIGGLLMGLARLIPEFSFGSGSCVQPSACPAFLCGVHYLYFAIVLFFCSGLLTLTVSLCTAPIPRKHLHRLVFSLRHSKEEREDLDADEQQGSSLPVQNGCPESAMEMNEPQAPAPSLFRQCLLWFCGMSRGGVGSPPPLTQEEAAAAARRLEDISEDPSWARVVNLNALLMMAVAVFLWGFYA

The experiment has as its target human SGLT2 (Homo sapiens (Human), UniProt P31639). Description: Inhibitory effects on human SGLT2 activities (14C-AMG uptake, sodium-dependent glucose transport assay). In kind it is cell-based. The settings on record: CHO cells stably expressing hSGLT2, 37° C., 2 h, single determinations. The method, boiled down:
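CHO cells stably expressing hSGLT2 were preincubated 10 min at 37 °C in choline (Na+-free) buffer, then exposed 2 h at 37 °C to compound in Na+ uptake buffer with 8 μM 14C-AMG and 1 mM unlabeled AMG. Radioactivity was scintillation counted; IC50 came from nonlinear regression.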
Compound `OC[C@H]1O[C@@H](c2cc(Cc3ccc(C4CC4)cc3)c(Cl)c3c2OCCC3)[C@H](O)[C@@H](O)[C@@H]1O` [Example E121, (2S,3R,4R,5S,6R)-2-(5-Chloro-6-(4-cyclopropylbenzyl)chroman-8-yl)-6-(hydroxymethyl)tetrahydro-2H-pyran-3,4,5-triol] had a half-inhibitory concentration (IC50) of 0.851 nM. The compound `OC[C@H]1O[C@@H](c2cc(Cc3ccc(OC(F)(F)F)cc3)c(Cl)c3c2CCO3)[C@H](O)[C@@H](O)[C@@H]1O` [Example E200, (2S,3R,4R,5S,6R)-2-(7-Chloro-6-(4-(trifluoromethoxy)benzyl)-2,3-dihydrobenzofuran-4-yl)-6-(hydroxymethyl)tetrahydro-2H-pyran-3,4,5-triol] displayed an IC50 of 1.08 nM. For `OC[C@H]1O[C@@H](c2ccc(Cl)c(Cc3ccc4c(c3)CCCS4)c2)[C@H](O)[C@@H](O)[C@@H]1O` [Example E061, (2S,3R,4R,5S,6R)-2-(4-Chloro-3-(thiochroman-6-ylmethyl)phenyl)-6-(hydroxymethyl)-tetrahydro-2H-pyran-3,4,5-triol] the value was 3.35 nM.

As to `CCOc1ccc(Cc2cc([C@@H]3O[C@H](CO)[C@@H](O)[C@H](O)[C@H]3O)c3c(c2Cl)OCC3OC)cc1` (stereo partly drawn) [Example E227, (2S,3R,4R,5S,6R)-2-(7-Chloro-6-(4-ethoxybenzyl)-3-methoxy-2,3-dihydrobenzofuran-4-yl)-6-(hydroxymethyl)-tetrahydro-2H-pyran-3,4,5-triol], half-maximal inhibition (IC50) was put at 8.99 nM.
